Assay results published in patent US4248863A, “Antibiotics saframycins A, B, C, D and E and process for producing the same” (priority 1977, dated 1981).
In brackets after ≈: the same amount, converted by molar mass. Read-outs that look alike come from different tables or passages of the source.

Key:
[1] = tested on: Micrococcus luteus; test: Antimicrobial spectrum, MIC (Table 4); assay type: cell-based; details: 1% glucose nutrient agar, 37° C., 24 or 48 hours
[2] = tested on: Corynebacterium xerosis; test: Antimicrobial spectrum, MIC (Table 4); assay type: cell-based; details: 1% glucose nutrient agar, 37° C., 24 or 48 hours
[3] = tested on: Staphylococcus albus; test: Antimicrobial spectrum, MIC (Table 4); assay type: cell-based; details: 1% glucose nutrient agar, 37° C., 24 or 48 hours
[4] = tested on: Pseudomonas aeruginosa; test: Antimicrobial spectrum, MIC (Table 4); assay type: cell-based; details: 1% glucose nutrient agar, 37° C., 24 or 48 hours
[5] = tested on: Shigella dysenteriae Shiga; test: microbe, parasite or virus in culture; assay type: cell-based
[6] = tested on: Klebsiella pneumoniae; test: Antimicrobial spectrum, MIC (Table 4); assay type: cell-based; details: 1% glucose nutrient agar, 37° C., 24 or 48 hours
[7] = tested on: Staphylococcus citreus; test: Antimicrobial spectrum, MIC (Table 4); assay type: cell-based; details: 1% glucose nutrient agar, 37° C., 24 or 48 hours
[8] = tested on: Serratia marcescens; test: Antimicrobial spectrum, MIC (Table 4); assay type: cell-based; details: 1% glucose nutrient agar, 37° C., 24 or 48 hours
[9] = tested on: Penicillium glaucum; test: Antimicrobial spectrum, MIC (Table 4)
[10] = tested on: Streptococcus faecalis; test: Antimicrobial spectrum, MIC (Table 4); assay type: cell-based; details: 1% glucose nutrient agar, 37° C., 24 or 48 hours
[11] = tested on: Mycobacterium phlei; test: Antimicrobial spectrum, MIC (Table 4); assay type: cell-based; details: 3% glycerol nutrient agar for acid-fast bacteria, 37° C., 24 or 48 hours
[12] = tested on: Corynebacterium dephtheriae; test: Antimicrobial spectrum, MIC (Table 4); assay type: cell-based; details: 1% glucose nutrient agar, 37° C., 24 or 48 hours
[13] = tested on: Escherichia coli; test: Antimicrobial spectrum, MIC (Table 4); assay type: cell-based; details: 1% glucose nutrient agar, 37° C., 24 or 48 hours
[14] = tested on: Bacillus subtilis; test: Antimicrobial spectrum, MIC (Table 4); assay type: cell-based; details: 1% glucose nutrient agar, 37° C., 24 or 48 hours
[15] = tested on: Trichophyton mentagrophytes; test: Antimicrobial spectrum, MIC (Table 4)
[16] = tested on: Nocardia asteroides; test: Antimicrobial spectrum, MIC (Table 4); assay type: cell-based; details: 37° C., 24 or 48 hours
[17] = tested on: Mucor mucedo; test: Antimicrobial spectrum, MIC (Table 4)
[18] = tested on: Staphylococcus aureus 209P; test: Antimicrobial spectrum, MIC (Table 4); assay type: cell-based; details: 1% glucose nutrient agar, 37° C., 24 or 48 hours
[19] = tested on: Staphylococcus salivarius; test: Antimicrobial spectrum, MIC (Table 4); assay type: cell-based; details: 1% glucose nutrient agar, 37° C., 24 or 48 hours
[20] = tested on: Streptococcus pyogenes; test: Antimicrobial spectrum, MIC (Table 4); assay type: cell-based; details: blood agar, 37° C., 24 or 48 hours
[21] = tested on: Candida albicans; test: Antimicrobial spectrum, MIC (Table 4)
[22] = tested on: Bacillus cereus; test: Antimicrobial spectrum, MIC (Table 4); assay type: cell-based; details: 1% glucose nutrient agar, 37° C., 24 or 48 hours
[23] = tested on: Streptococcus pyogenes 090R; test: Antimicrobial spectrum, MIC (Table 4); assay type: cell-based; details: blood agar, 37° C., 24 or 48 hours
[24] = tested on: Brucella abortus; test: microbe, parasite or virus in culture; assay type: cell-based
[25] = tested on: Aspergillus oryzae; test: Antimicrobial spectrum, MIC (Table 4)
[26] = tested on: Mycobacterium avium; test: Antimicrobial spectrum, MIC (Table 4); assay type: cell-based; details: 3% glycerol nutrient agar for acid-fast bacteria, 37° C., 24 or 48 hours
[27] = tested on: Staphylococcus aureus Smith; test: Antimicrobial spectrum, MIC (Table 4); assay type: cell-based; details: 1% glucose nutrient agar, 37° C., 24 or 48 hours
[28] = tested on: Salmonella typhimurium; test: Antimicrobial spectrum, MIC (Table 4); assay type: cell-based; details: 1% glucose nutrient agar, 37° C., 24 or 48 hours
[29] = tested on: Mycobacterium sp. 607; test: Antimicrobial spectrum, MIC (Table 4); assay type: cell-based; details: 3% glycerol nutrient agar for acid-fast bacteria, 37° C., 24 or 48 hours
[30] = tested on: Aspergillus niger; test: Antimicrobial spectrum, MIC (Table 4)
[31] = tested on: Rhodotorula glutinis; test: Antimicrobial spectrum, MIC (Table 4)
[32] = tested on: Saccharomyces cerevisiae; test: Antimicrobial spectrum, MIC (Table 4)
[33] = in vivo; details: mouse, ip
[34] = Solubility
[35] = Sabouraud.dextrose.agar, 27° C., 48 hours

Compound COC1=C(C)C(=O)C2=C(C1=O)C1C3CC4=C(C(=O)C(OC)=C(C)C4=O)C(CNC(=O)C(C)=O)N3CC(C2)N1C (stereo not shown) [saframycin B] has an MIC ([1]; Micrococcus luteus, read-out: MIC) of 1.56 mg/L (≈ 2.9 µM), an MIC ([2]; Corynebacterium xerosis, read-out: MIC) of 12.5 mg/L (≈ 23.3 µM) and an MIC ([3]; Staphylococcus, read-out: MIC) of 12.5 mg/L (≈ 23.3 µM). For the same compound, the MIC ([4]; Pseudomonas aeruginosa, read-out: MIC) was greater than 100 mg/L, the MIC ([5]; Shigella dysenteriae) was greater than 100 mg/L and the MIC ([6]; Klebsiella pneumoniae, read-out: MIC) was 12.5 mg/L (≈ 23.3 µM). The MIC ([7]; Staphylococcus, read-out: MIC) was 12.5 mg/L (≈ 23.3 µM), the MIC ([8]; Serratia marcescens, read-out: MIC) was greater than 100 mg/L and the MIC ([9]; Penicillium, 48 h) was greater than 100 mg/L. The MIC ([10]; Enterococcus faecalis, read-out: MIC) was greater than 100 mg/L, the MIC ([11]; Mycolicibacterium phlei, read-out: MIC) was 50 mg/L (≈ 93 µM) and the MIC ([12]; Corynebacterium, read-out: MIC) was 0.4 mg/L (≈ 0.744 µM). For the same compound, the MIC ([13]; Escherichia coli, read-out: MIC) was greater than 100 mg/L, the MIC ([14]; Bacillus subtilis, read-out: MIC) was 25 mg/L (≈ 46.5 µM) and the MIC ([15]; Trichophyton mentagrophytes, 72 h) was greater than 100 mg/L. It also gave an MIC ([16]; Nocardia asteroides, read-out: MIC) of 50 mg/L (≈ 93 µM), an MIC ([17]; Mucor mucedo, 48 h) greater than 100 mg/L and an MIC ([18]; Staphylococcus aureus, 209P, read-out: MIC) of 12.5 mg/L (≈ 23.3 µM). The MIC ([19]; Staphylococcus, read-out: MIC) was 100 mg/L (≈ 186 µM), the MIC ([20]; Streptococcus pyogenes, read-out: MIC) was 12.5 mg/L (≈ 23.3 µM) and the MIC ([21]; Candida albicans, 48 h) was greater than 100 mg/L. The MIC ([22]; Bacillus cereus, read-out: MIC) was 100 mg/L (≈ 186 µM), the MIC ([23]; Streptococcus pyogenes, 090R, read-out: MIC) was 25 mg/L (≈ 46.5 µM) and the MIC ([24]; Brucella abortus) was 50 mg/L (≈ 93 µM). For the same compound, the MIC ([25]; Aspergillus oryzae, 48 h) was greater than 100 mg/L, the MIC ([26]; Mycobacterium avium, read-out: MIC) was 100 mg/L (≈ 186 µM) and the MIC ([27]; Staphylococcus aureus, read-out: MIC) was 1.56 mg/L (≈ 2.9 µM). The MIC ([28]; Salmonella enterica, TYPHIMURIUM, read-out: MIC) was greater than 100 mg/L, the MIC ([29]; Mycobacterium, SP.607, read-out: MIC) was 100 mg/L (≈ 186 µM) and the MIC ([30]; Aspergillus niger, 48 h) was greater than 100 mg/L. It also gave an MIC ([31]; Rhodotorula glutinis, 48 h) greater than 100 mg/L, an MIC ([32]; Saccharomyces cerevisiae, 48 h) greater than 100 mg/L and an MTD [33] of 250 mg/kg.
Compound COC1=C(C)C(=O)C2=C(C1=O)[C@@H]1[C@@H]3CC4=C(C(=O)C(OC)=C(C)C4=O)[C@H](CNC(=O)C(C)=O)N3C[C@H]([C@H]2OC)N1C [saframycin C] has an MIC [1] of 6.25 mg/L (≈ 11 µM), an MIC [2] of 25.0 mg/L (≈ 44 µM) and an MIC [3] of 25.0 mg/L (≈ 44 µM). It also gave an MIC [4] greater than 100.0 mg/L, an MIC ([5]; 1% glucose nutrient agar, 37° C., 24 or 48 hours) greater than 100.0 mg/L and an MIC [6] of 50.0 mg/L (≈ 88.1 µM). For the same compound, the MIC [7] was 25.0 mg/L (≈ 44 µM), the MIC [8] was greater than 100.0 mg/L and the MIC [9, 35] was greater than 100.0 mg/L. It also gave an MIC [10] greater than 100.0 mg/L, an MIC [11] greater than 100.0 mg/L and an MIC [12] of 3.125 mg/L (≈ 5.51 µM). For the same compound, the MIC [13] was greater than 100.0 mg/L, the MIC [14] was 25.0 mg/L (≈ 44 µM) and the MIC ([15]; Sabouraud.dextrose.agar, 27° C., 72 hours) was greater than 100.0 mg/L. It also gave an MIC [16] of 50.0 mg/L (≈ 88.1 µM), an MIC [17, 35] greater than 100.0 mg/L and an MIC [18] of 25.0 mg/L (≈ 44 µM). The MIC [19] was greater than 100.0 mg/L, the MIC [20] was 25.0 mg/L (≈ 44 µM) and the MIC [21, 35] was greater than 100.0 mg/L. The MIC [22] was 100.0 mg/L (≈ 176 µM), the Solubility ([34]; acetone) was “Easily soluble” and the Solubility ([34]; benzene) was “Easily soluble”. The Solubility ([34]; chloroform) was “Easily soluble”, the Solubility ([34]; esters) was “Easily soluble” and the Solubility ([34]; ethyl ether) was “Sparingly soluble”. For the same compound, the Solubility ([34]; lower alcohols) was “Easily soluble”, the Solubility ([34]; n-hexane) was “Insoluble” and the Solubility ([34]; water) was “Insoluble”. It also gave an MIC [23] of 12.5 mg/L (≈ 22 µM), an MIC ([24]; blood agar, 37° C., 24 or 48 hours) of 50.0 mg/L (≈ 88.1 µM) and an MIC [25, 35] greater than 100.0 mg/L. The MIC [26] was greater than 100.0 mg/L, the MIC [27] was 6.25 mg/L (≈ 11 µM) and the MIC [28] was greater than 100.0 mg/L. For the same compound, the MIC [29] was greater than 100.0 mg/L, the MIC [30, 35] was greater than 100.0 mg/L and the MIC [31, 35] was greater than 100.0 mg/L. It also gave an MIC [32, 35] greater than 100.0 mg/L.
